The text below walks through data of PMC12063173, “Metabolic Profiling of a Mediterranean-Inspired (Poly)phenol-Rich Mixture in the Brain: Perfusion Effect and In Vitro Blood–Brain Barrier Transport Validation” (Journal of Agricultural and Food Chemistry, 2025).

“Also recorded” adds a separate entry of the source. Read-outs that look alike come from different tables or passages of the source.

Data set [1] can be described thus: Perfused brain (PB) kinetics of phenolic metabolites after oral capsule. The settings on record: for Tmax: male, Sprague-Dawley, rat, 22 mg extract blend per capsule, one capsule per animal; for Tmax / AUC0-t PB / Cmax PB / Tmax PB: perfused brain, oral capsule, 0-24 h, n = 3 per time point; for PB versus NPB comparison: perfused versus nonperfused brain. The class given is in vivo, Sprague–Dawley rats. Set-up: AUC0-t PB: concentration or dose not given beside the values. The source says: (§1) Statistical analyses were applied depending on the experimental context.

Data set [2] can be described thus: Nonperfused brain (NPB) kinetics of phenolic metabolites after oral capsule. The settings on record: nonperfused brain, oral capsule, 0-24 h, n = 3 per time point. Set-up: AUC0-t NPB: concentration or dose not given beside the values. The class given is in vivo, Sprague–Dawley rats.
Description: as §1

The nature of data set [3]: Targeted metabolomics (UPLC-ESI-QTOF) identification of metabolites in plasma, PB and NPB. The note with it: P plasma, PB perfused brain, NPB nonperfused brain, 1-24 h after oral capsule.
Data set [4] is described as follows: Plasma pharmacokinetics of phenolic metabolites after oral capsule of (poly)phenol-rich Mediterranean extract mixture. The note with it: for AUC0-t plasma / MRT0-t plasma / T1/2 plasma / Tmax plasma: oral capsule, 0-24 h, n = 6 per time point.
Where [5] appears, read: male, Sprague-Dawley, rat, 22 mg extract blend per capsule, one capsule per animal.
The mark [6] stands for this setting: male, Sprague-Dawley, rat, po, 22 mg extract blend per capsule, one capsule per animal.
[7] abbreviates: read-out: Cmax plasma, oral capsule, 0-24 h, n = 6 per time point.

Consider `O=C(O)c1ccc(O)cc1O` [2,4-dihydroxybenzoic acid], for which, in data set [1], the Tmax (usually the time at which the peak concentration occurs) worked out at 10 ± 12 h, the “AUC0-t PB” value came out at 44 ± 17 pmol·h/g, the “Cmax PB” value was 4.3 ± 2.8 pmol/g tissue and the “PB versus NPB comparison” value is reported as “significantly lower AUC values in PB compared to NPB”. In addition, the Tmax in data set [2] (setting [5]) stood at 14 ± 15 h. Moreover, the MRT last in data set [2] (male, Sprague-Dawley, rat, 22 mg extract blend per capsule, one capsule per animal, read-out: MRT0-t NPB) stood at 7.9 ± 1.1 h. Besides, the half-life in data set [2] (male, Sprague-Dawley, rat, 22 mg extract blend per capsule, one capsule per animal, read-out: T1/2 NPB (converted)) was 5.4 ± 3.6 h. In addition, in data set [2], the “AUC0-t NPB” value was 92 ± 31 pmol·h/g and the “Cmax NPB” value is 10 ± 1.2 pmol/g tissue. Further, in data set [3], the occurrence entry is “consistently detected in plasma and brain at all time points; also recorded: PB, NPB, P”. For the same compound, the “concentration in plasma (approximate)” value in data set [4] is reported as “around 500 nM”. For the same compound, in data set [4] (setting [6]), the AUC(0-t) (commonly exposure summed from dosing to a finite time, without extrapolation to infinity) is 6.42 ± 1.92 µM·h; the Cmax (commonly the highest concentration seen after dosing) is 534 ± 211 nM; the MRT last turned out to be 22 ± 11 h; the time of peak concentration (Tmax) is 12 ± 11 h. Also, in data set [4] (setting [6]), the half-life is 14 ± 6 h.
With `COc1cc(/C=C/C(=O)O)ccc1OS(=O)(=O)O` [ferulic acid 4-O-sulfate], in data set [1], the “AUC0-t PB” value was 3.0 ± 0.5 pmol·h/g, the “Cmax PB” value came to 0.2 ± 0.1 pmol/g tissue, the “Tmax PB” value is given as 12 ± 11 h and the “PB versus NPB comparison” value is reported as “significantly lower AUC values in PB compared to NPB”. In addition, in data set [2], the “AUC0-t NPB” value came out at 4.8 ± 2.6 pmol·h/g, the “Cmax NPB” value is reported as 0.3 ± 0.2 pmol/g tissue and the “Tmax NPB” value worked out at 1.0 ± 0.0 h. Moreover, in data set [3], the occurrence result is recorded as “PB, NPB, P”. For the same compound, in data set [4], the “plasma concentration relative to p-coumaric acid 4-O-sulfate” value is “approximately 3 fold”, the AUC0-t plasma worked out at 1.114 ± 0.459 µM·h, the MRT0-t plasma amounted to 14 ± 5.1 h and the T1/2 plasma is recorded as 12 ± 6.3 h. In addition, in data set [4], the Tmax plasma turned out to be 4.2 ± 1.6 h. For the same compound, the peak concentration (Cmax) in data set [4] (setting [7]) was found to be 129 ± 107 nM.
Consider `O=S(=O)(O)Oc1ccc(CCO)cc1` [tyrosol 4-O-sulfate], for which, in data set [1], the “AUC0-t PB” value turned out to be 0.9 ± 1.3 pmol·h/g, the “Cmax PB” value came to 0.1 ± 0.08 pmol/g tissue and the “Tmax PB” value was 2.3 ± 3.2 h. In data set [2], the “AUC0-t NPB” value turned out to be 31 ± 43 pmol·h/g, the “Cmax NPB” value was determined as 4.7 ± 6.1 pmol/g tissue, the “MRT0-t NPB” value is recorded as 7.4 ± 0.4 h and the “T1/2 NPB” value amounted to 4.5 ± 1.1 h. Also, in data set [2], the “Tmax NPB” value is on record as 2.0 ± 1.4 h. Also, the occurrence entry in data set [3] is given as “PB, NPB, P”. For the same compound, the occurrence entry in data set [3] (listed as tyrosol 4-sulfate) is “identified in plasma, perfused brain (PB), and nonperfused brain (NPB)”. For the same compound, in data set [4], the AUC0-t plasma amounted to 0.122 ± 0.116 µM·h, the MRT0-t plasma was 7.15 ± 3.3 h, the T1/2 plasma was determined as 6.5 ± 1.8 h and the Tmax plasma worked out at 1 ± 0 h. Moreover, the Cmax in data set [4] (setting [7]) worked out at 20 ± 30 nM.
Regarding `O=C(O)CCc1ccccc1O` [3-(2-hydroxyphenyl) propionic acid], in data set [1], the Tmax amounted to 9 ± 1.4 h, the “AUC0-t PB” value stood at 1.8 ± 2.2 pmol·h/g and the “Cmax PB” value is given as 0.6 ± 0.5 pmol/g tissue. The Tmax in data set [2] (setting [5]) amounted to 3.3 ± 4 h. For the same compound, in data set [2], the “AUC0-t NPB” value was 1.1 ± 0.8 pmol·h/g and the “Cmax NPB” value is 0.3 ± 0.04 pmol/g tissue. Moreover, in data set [3], the occurrence entry is recorded as “PB, NPB, P”. The occurrence entry in data set [3] (listed as 3-(2-hydroxyphenyl)propionic acid) is “consistently detected in plasma and brain at all time points”. Moreover, in data set [4] (setting [6]), the area under the curve AUC(0-t) was found to be 0.213 ± 0.053 µM·h, the Cmax amounted to 20 ± 11 nM, the MRT last is 8.89 h and the time to peak (Tmax) was 10 h. Besides, in data set [4] (setting [6]), the half-life was 8.26 h.
